How the values were obtained:
[1] = Half-life was determined in rat after intravenous administration (0.5 mg/kg); assay type: ADME, organism-based; settings: in vivo
[2] = Plasma clearance was determined in rat after intravenous administration (0.5 mg/kg); assay type: ADME, organism-based; settings: read-out: Clp
[3] = test system: Mus musculus; experiment: In vivo triglyceride correction was determined in male db/db mice after administration at 5 mg/kg; assay type: functional
[4] = Oral bioavailability in rat (dose 2 mg/kg); assay type: ADME, organism-based; settings: in vivo
[5] = test system: Mus musculus; experiment: In vivo glucose correction was determined in male db/db mice after administration at 5 mg/kg; assay type: functional
[6] = test system: Rattus norvegicus; experiment: Dose-normalized AUC was determined in rat after peroral administration (2 mg/kg); assay type: ADME, organism-based; settings: in vivo, po
[7] = biological target: T1, Peroxisome proliferator-activated receptor delta (Homo sapiens, UniProt Q03181)
T1 sequence (Q03181 whole entry): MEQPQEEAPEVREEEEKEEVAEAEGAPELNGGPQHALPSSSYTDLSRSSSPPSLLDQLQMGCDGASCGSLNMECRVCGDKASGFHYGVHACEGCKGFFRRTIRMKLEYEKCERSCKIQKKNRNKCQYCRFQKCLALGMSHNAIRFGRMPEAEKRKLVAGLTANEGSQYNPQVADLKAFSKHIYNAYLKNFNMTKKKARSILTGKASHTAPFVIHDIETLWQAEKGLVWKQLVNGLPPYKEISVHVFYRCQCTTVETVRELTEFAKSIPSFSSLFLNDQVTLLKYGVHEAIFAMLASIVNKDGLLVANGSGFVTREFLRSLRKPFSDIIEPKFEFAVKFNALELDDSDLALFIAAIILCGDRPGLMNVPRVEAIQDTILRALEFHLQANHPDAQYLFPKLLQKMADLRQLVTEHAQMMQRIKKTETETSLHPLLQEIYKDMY
Description: In vitro binding affinity against human PPAR delta (peroxisome proliferator-activated delta receptor)

[8] = biological target: T2, Peroxisome proliferator-activated receptor alpha (Homo sapiens, UniProt Q07869); experiment: In vitro binding affinity against human PPAR alpha (peroxisome proliferator-activated alpha receptor)
T2 sequence (Q07869 whole entry): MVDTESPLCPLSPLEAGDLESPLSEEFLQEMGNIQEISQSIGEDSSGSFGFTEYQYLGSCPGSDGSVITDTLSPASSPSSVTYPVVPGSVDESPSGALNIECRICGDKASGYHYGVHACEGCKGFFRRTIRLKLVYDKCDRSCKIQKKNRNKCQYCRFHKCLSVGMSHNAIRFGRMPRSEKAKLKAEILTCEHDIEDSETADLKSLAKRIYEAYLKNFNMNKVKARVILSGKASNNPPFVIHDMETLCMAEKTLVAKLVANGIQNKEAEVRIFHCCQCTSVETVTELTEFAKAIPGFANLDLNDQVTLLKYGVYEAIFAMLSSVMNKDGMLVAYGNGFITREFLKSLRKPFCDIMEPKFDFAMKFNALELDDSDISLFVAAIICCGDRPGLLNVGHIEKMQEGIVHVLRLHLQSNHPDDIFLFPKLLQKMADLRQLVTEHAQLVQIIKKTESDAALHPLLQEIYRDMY

[9] = biological target: T2, Peroxisome proliferator-activated receptor alpha; experiment: In vitro agonist activity tested for transactivation in human PPAR alpha-Gal4 chimeric COS-1 cells; assay type: functional, cell-based
[10] = biological target: T3, Peroxisome proliferator-activated receptor gamma (Homo sapiens, UniProt P37231)
T3 sequence (P37231 whole entry): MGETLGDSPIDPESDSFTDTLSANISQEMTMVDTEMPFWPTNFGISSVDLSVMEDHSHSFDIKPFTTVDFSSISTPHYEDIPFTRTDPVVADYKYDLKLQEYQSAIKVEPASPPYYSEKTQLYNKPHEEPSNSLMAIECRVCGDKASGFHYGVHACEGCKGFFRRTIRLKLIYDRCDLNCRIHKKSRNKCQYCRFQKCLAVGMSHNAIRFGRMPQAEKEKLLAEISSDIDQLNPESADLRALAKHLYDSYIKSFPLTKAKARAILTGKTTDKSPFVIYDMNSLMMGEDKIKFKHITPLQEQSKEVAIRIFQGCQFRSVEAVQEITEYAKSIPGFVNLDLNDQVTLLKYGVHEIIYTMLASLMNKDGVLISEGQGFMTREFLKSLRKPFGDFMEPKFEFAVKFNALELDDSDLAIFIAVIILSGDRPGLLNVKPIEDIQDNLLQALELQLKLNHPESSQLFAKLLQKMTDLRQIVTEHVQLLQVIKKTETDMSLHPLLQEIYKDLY
Description: In vitro agonist activity tested for transactivation in human PPAR gamma-Gal4 chimeric COS-1 cells

[11] = biological target: T3, Peroxisome proliferator-activated receptor gamma; remark: listed apart in the source
Description: In vitro binding affinity against human PPAR gamma (peroxisome proliferator-activated gamma receptor)

[12] = biological target: T1, Peroxisome proliferator-activated receptor delta; remark: listed apart in the source
Description: In vitro agonist activity tested for transactivation in human PPAR delta-GAL4 chimeric COS-1 cells

[13] = In vivo glucose correction was determined in male db/db mice after administration at 10 mg/kg; assay type: functional, Mus musculus
[14] = In vivo triglyceride correction was determined in male db/db mice after administration at 10 mg/kg; assay type: functional, Mus musculus

SMILES | IC50 [7] [µM] | IC50 [8] [µM] | EC50 [9] [µM] | EC50 [10] [µM] | IC50 [11] [µM] | EC50 [12] [µM] | half-life [1] [h] | clearance [2] [mL/min/kg] | Triglyceride correction [3] [%] | bioavailability [4] [%] | Glucose correction [5] [%] | AUC [6] [µM·h] | Glucose correction [13] [%] | Triglyceride correction [14] [%]
CN(CCOc1ccc(CC2SC(=O)NC2=O)cc1)c1ccccn1 (configuration not stated) [ROSIGLITAZONE] |  |  |  |  |  |  | 1.2 | 2.7 | 52 | 85 | 46 | 16.4 |  | 
CCCc1cc(Oc2ccc(C3CCCC3)cc2)ccc1OCCCOc1ccc(C2SC(=O)NC2=O)cc1 (configuration not stated) | > 50 | > 50 |  |  | 0.18 |  |  |  |  |  |  |  |  | 
CCCc1cc(Oc2ccccc2)ccc1OCCCCOc1ccc(C2SC(=O)NC2=O)cc1 (configuration not stated) | > 10 | > 50 | > 3 |  | 3 | > 3 |  |  |  |  |  |  |  | 
CCCc1cc(Oc2ccc(Cl)cc2)ccc1OCCCOc1ccc(C2SC(=O)NC2=O)cc1 (configuration not stated) | > 50 | > 50 | 3 | 0.08 | 2 | > 3 | 5.4 | 2.9 |  | 58 |  | 6.7 | 86 | 80
CCCc1cc(Oc2ccccc2)ccc1OCCCOc1ccc(C2SC(=O)NC2=O)cc1 (configuration not stated) | > 10 | 50 | > 3 |  |  | > 3 | 2.3 | 2.3 |  | 89 |  | 13.8 | 77 | 74
CCCc1cc(Oc2ccccc2)ccc1OCCCOc1ccc(C2SC(=O)NC2=O)cc1Cl (configuration not stated) | 0.88 | > 50 | > 3 | 0.7 | 0.43 | > 3 |  |  |  |  |  |  |  | 
CCCc1cc(Oc2ccc(F)cc2)ccc1OCCCOc1ccc(C2SC(=O)NC2=O)cc1 (configuration not stated) | > 50 | > 50 | > 50 |  |  | > 50 | 2.1 | 3.6 |  | 63 |  | 5.97 | 78 | 71
CCCc1cc(Oc2ccc(OC)cc2)ccc1OCCCOc1ccc(C2SC(=O)NC2=O)cc1 (configuration not stated) | > 50 | > 50 | > 10 |  | 0.46 | > 3 | 2.8 | 1.1 |  | 39 |  | 11.7 | 67 | 67
CCCc1cc(Oc2ccccc2)ccc1OCCCOc1ccc(C2SC(=O)NC2=O)cc1F (configuration not stated) | 2 |  | > 3 | 0.3 |  | > 3 | 1.7 | 2.9 |  | 63 |  | 7.43 | 43 | 50
CCCc1cc(Oc2ccccc2)ccc1OCCCOc1ccc(C2SC(=O)NC2=O)cc1C (configuration not stated) | 6 | > 50 | > 3 | 0.1 | 6.7 | > 3 |  |  |  |  |  |  |  | 
O=C1NC(=O)C(c2ccc(OCCCOc3ccc(Oc4ccccc4)cc3)cc2)S1 (configuration not stated) | > 50 | > 50 |  |  | > 15 |  |  |  |  |  |  |  |  | 
CCCc1cc(Oc2ccc(NS(=O)(=O)c3ccc(C)cc3)cc2)ccc1OCCCOc1ccc(C2SC(=O)NC2=O)cc1 (configuration not stated) | > 50 | > 50 | > 3 | 0.5 | 5.7 | > 3 |  |  |  |  |  |  |  | 

Now from value to compound, other results behind:

IC50 [7] [µM] | IC50 [8] [µM] | EC50 [9] [µM] | EC50 [10] [µM] | IC50 [11] [µM] | EC50 [12] [µM] | SMILES | half-life [1] [h] | clearance [2] [mL/min/kg] | Triglyceride correction [3] [%] | bioavailability [4] [%] | Glucose correction [5] [%] | AUC [6] [µM·h] | Glucose correction [13] [%] | Triglyceride correction [14] [%]
0.16 | 0.34 |  |  |  |  | CC(C)Cc1cc(Oc2ccccc2)ccc1OCCCOc1ccc(C2SC(=O)NC2=O)cc1 (configuration not stated) |  |  |  |  |  |  |  | 
> 50 | > 50 | > 3 | 0.03 | 0.13 | > 3 | CCCc1cc(Oc2ccc(CC(C)C)cc2)ccc1OCCCOc1ccc(C2SC(=O)NC2=O)cc1 (configuration not stated) |  |  |  |  |  |  |  | 
> 50 | > 50 | > 3 | 0.02 | 0.13 | > 3 | CCCc1cc(Oc2ccc(-c3ccccc3)cc2)ccc1OCCCOc1ccc(C2SC(=O)NC2=O)cc1 (configuration not stated) | 2.2 | 2.8 |  | 6 |  | 0.7 |  | 
> 10 | > 50 | > 3 | 0.4 | 1 | > 3 | CCCc1cc(Oc2ccccc2)ccc1OCCCOc1ccc(C2SC(=O)NC2=O)cc1OC (configuration not stated) |  |  |  |  |  |  |  | 
> 50 | > 50 |  |  | 1.8 |  | CCCc1cc(Oc2ccc(C(F)(F)F)cc2)ccc1OCCCOc1ccc(C2SC(=O)NC2=O)cc1 (configuration not stated) |  |  |  |  |  |  |  | 
1 | > 50 | > 3 | 0.2 | 0.12 | 3 | CCCc1cc(Oc2ccccc2)ccc1OCCCOc1ccc(C2SC(=O)NC2=O)cc1CCC (configuration not stated) |  |  |  |  |  |  |  | 
> 50 | > 50 |  |  | 2.6 |  | CCCc1cc(Oc2ccc(C)cc2)ccc1OCCCOc1ccc(C2SC(=O)NC2=O)cc1 (configuration not stated) |  |  |  |  |  |  |  | 
> 50 | > 50 |  |  | 2 |  | CCCc1cc(Oc2ccc(NS(C)(=O)=O)cc2)ccc1OCCCOc1ccc(C2SC(=O)NC2=O)cc1 (configuration not stated) |  |  |  |  |  |  |  | 
